Test results from patent US20170233413A1, “SUBSTITUTED ANNULATED PYRIMIDINES AND USE THEREOF” (Bayer Pharma Aktiengesellschaft, priority 2014, published 2017).

How the values were obtained:
[1] = target: T1, human phosphodiesterase 5 (PDE 5) (Homo sapiens, UniProt O76074); experiment: Inhibition of human phosphodiesterase 5 (PDE 5); type: biochemical; conditions: PDE 5 preparation from human platelets; in some cases means of individual determinations
T1 construct: PDE 5 preparations are obtained from human platelets by disruption; from tissue; host or cells: human platelets
Method: B-3. Inhibition of Human Phosphodiesterase 5 (PDE 5)
PDE 5 preparations are obtained from human platelets by disruption (Microfluidizer®, 800 bar, 3 passes), followed by centrifugation (75 000 g, 60 min, 4° C.) and ion exchange chromatography of the supernatant on a Mono Q 10/10 column (linear sodium chloride gradient, elution with a 0.2-0.3M solution of sodium chloride in buffer (20 mM Hepes pH 7.2, 2 mM magnesium chloride). Fractions having PDE 5 activity are combined (PDE 5 preparation) and stored at −80° C.
To determine their in vitro action on human PDE 5, the test substances are dissolved in 100% DMSO and serially diluted. Typically, dilution series (1:3) from 200 μM to 0.091 μM are prepared (resulting final concentrations in the test: 4 μM to 0.0018 μM). In each case 2 μl of the diluted substance solutions are placed into the wells of microtitre plates (Isoplate-96/200W; Perkin Elmer). Subsequently, 50 μl of a dilution of the above-described PDE 5 preparation are added. The dilution of the PDE 5 preparation is chosen such that during the later incubation less than 70% of the substrate are converted (typical dilution: 1:100; dilution buffer: 50 mM tris/hydrochloric acid pH 7.5, 8.3 mM magnesium chloride, 1.7 mM EDTA, 0.2% BSA). The substrate, [8-^3H] cyclic guanosine-3′,5′-monophosphate (1 μCi/μl; Perkin Elmer), is diluted 1:2000 with assay buffer (50 mM tris/hydrochloric acid pH 7.5, 8.3 mM magnesium chloride, 1.7 mM EDTA) to a concentration of 0.0005 μCi/μl. By addition of 50 μl (0.025 μCi) of the diluted substrate, the enzyme reaction is finally started. The test mixtures are incubated at room temperature for 60 min and the reaction is stopped by adding 25 μl of a suspension of 18 mg/ml yttrium scintillation proximity beads in water (phosphodiesterase beads for SPA assays, RPNQ 0150, Perkin Elmer). The microtitre plates are sealed with a film and left to stand at room temperature for 60 min. Subsequently, the plates are analysed for 30 s per well in a Microbeta scintillation counter (Perkin Elmer). IC50 values are determined using the graphic plot of the substance concentration against percentage PDE 5 inhibition.

[2] = target: T2, recombinant guanylate cyclase reporter cell line (Rattus norvegicus, UniProt P19686+P20595); experiment: Effect on a recombinant guanylate cyclase reporter cell line; type: cell-based; conditions: MEC = minimum effective concentration; in some cases means of individual determinations
T2 construct: expressed in transfected cells
T2 sequence (P19686 1-690): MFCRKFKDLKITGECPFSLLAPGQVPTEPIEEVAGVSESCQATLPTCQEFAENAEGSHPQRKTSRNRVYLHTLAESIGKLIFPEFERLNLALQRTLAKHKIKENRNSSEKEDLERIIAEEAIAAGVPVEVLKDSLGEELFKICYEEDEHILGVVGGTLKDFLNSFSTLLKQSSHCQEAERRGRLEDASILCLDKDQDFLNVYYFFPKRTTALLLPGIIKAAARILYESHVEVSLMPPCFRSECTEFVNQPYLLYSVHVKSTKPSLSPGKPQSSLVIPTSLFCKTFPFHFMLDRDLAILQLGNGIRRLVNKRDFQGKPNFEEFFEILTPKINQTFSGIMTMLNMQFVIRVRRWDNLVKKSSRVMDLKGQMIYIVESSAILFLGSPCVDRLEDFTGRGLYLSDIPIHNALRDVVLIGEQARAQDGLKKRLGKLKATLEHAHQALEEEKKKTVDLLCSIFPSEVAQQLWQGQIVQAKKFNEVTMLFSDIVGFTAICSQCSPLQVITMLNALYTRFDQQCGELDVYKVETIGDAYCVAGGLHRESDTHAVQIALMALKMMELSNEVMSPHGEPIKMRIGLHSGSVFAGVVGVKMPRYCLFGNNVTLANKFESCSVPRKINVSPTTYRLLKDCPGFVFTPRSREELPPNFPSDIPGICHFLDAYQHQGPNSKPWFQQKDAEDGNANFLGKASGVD
T2 sequence (P20595 1-619): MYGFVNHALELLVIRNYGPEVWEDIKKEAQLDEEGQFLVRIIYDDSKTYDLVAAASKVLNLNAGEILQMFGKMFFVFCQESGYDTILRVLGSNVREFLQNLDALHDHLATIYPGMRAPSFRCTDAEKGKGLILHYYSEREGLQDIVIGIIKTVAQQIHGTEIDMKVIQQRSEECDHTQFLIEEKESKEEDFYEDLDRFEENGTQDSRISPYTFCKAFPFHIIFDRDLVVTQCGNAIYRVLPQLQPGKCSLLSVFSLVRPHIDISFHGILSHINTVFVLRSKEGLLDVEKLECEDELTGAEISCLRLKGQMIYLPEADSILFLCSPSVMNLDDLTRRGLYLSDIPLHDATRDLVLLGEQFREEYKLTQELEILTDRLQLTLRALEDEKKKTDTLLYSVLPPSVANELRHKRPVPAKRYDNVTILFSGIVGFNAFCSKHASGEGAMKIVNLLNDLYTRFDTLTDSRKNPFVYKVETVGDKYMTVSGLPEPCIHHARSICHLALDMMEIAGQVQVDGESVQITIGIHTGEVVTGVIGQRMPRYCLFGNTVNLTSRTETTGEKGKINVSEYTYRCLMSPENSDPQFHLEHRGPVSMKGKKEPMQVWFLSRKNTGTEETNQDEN
Method: B-2. Effect on a Recombinant Guanylate Cyclase Reporter Cell Line
The cellular activity of the compounds of the invention is determined using a recombinant guanylate cyclase reporter cell line, as described in F. Wunder et al., Anal. Biochem. 2005, 339, 104-112. Representative values (MEC=minimum effective concentration) for the compounds of the invention are shown in the table below (Table 1B; in some cases as means of individual determinations): […]

SMILES: Cc1nc2c(cc1F)c(-c1nc3c(c(C(N)=O)n1)C(C)(C(F)(F)F)C(=O)N3)nn2Cc1cccc(F)c1F (racemic) [Example 9, rac-2-[1-(2,3-difluorobenzyl)-5-fluoro-6-methyl-1H-pyrazolo[3,4-b]pyridin-3-yl]-5-methyl-6-oxo-5-(trifluoromethyl)-6,7-dihydro-5H-pyrrolo[2,3-d]pyrimidine-4-carboxamide]
- IC50 [1]: 58 nM
- MEC [2]: 0.3 µM

SMILES: Cc1nc2c(cc1F)c(-c1nc3c(c(C(N)=O)n1)C(C)(C(F)(F)F)C(=O)N3)nn2Cc1ccccc1F (racemic) [Example 12, rac-2-[5-fluoro-1-(2-fluorobenzyl)-6-methyl-1H-pyrazolo[3,4-b]pyridin-3-yl]-5-methyl-6-oxo-5-(trifluoromethyl)-6,7-dihydro-5H-pyrrolo[2,3-d]pyrimidine-4-carboxamide]
- IC50 [1]: 130 nM
- MEC [2]: 0.065 µM

SMILES: Cc1nc2c(cc1F)c(-c1nc3c(c(C(N)=O)n1)C(C)(C(F)(F)F)C(=O)N3)nn2Cc1c(F)ccc(F)c1F (racemic) [Example 15, rac-2-[5-fluoro-6-methyl-1-(2,3,6-trifluorobenzyl)-1H-pyrazolo[3,4-b]pyridin-3-yl]-5-methyl-6-oxo-5-(trifluoromethyl)-6,7-dihydro-5H-pyrrolo[2,3-d]pyrimidine-4-carboxamide]
- IC50 [1]: 1200 nM
- MEC [2]: 0.2 µM

SMILES: Cc1nc2c(cc1F)c(-c1nc3c(c(C(N)=O)n1)C(C)(C(F)(F)F)C(=O)N3)nn2Cc1ncccc1F (racemic) [Example 18, rac-2-{5-Fluoro-1-[(3-fluoropyridin-2-yl)methyl]-6-methyl-1H-pyrazolo[3,4-b]pyridin-3-yl}-5-methyl-6-oxo-5-(trifluoromethyl)-6,7-dihydro-5H-pyrrolo[2,3-d]pyrimidine-4-carboxamide]
- IC50 [1]: 570 nM
- MEC [2]: 0.3 µM

SMILES: CC1(C(F)(F)F)C(=O)Nc2nc(-c3nn(Cc4ncccc4F)c4ncc(F)cc34)nc(C(N)=O)c21 (racemic) [Example 21, rac-2-{5-Fluoro-1-[(3-fluoropyridin-2-yl)methyl]-1H-pyrazolo[3,4-b]pyridin-3-yl}-5-methyl-6-oxo-5-(trifluoromethyl)-6,7-dihydro-5H-pyrrolo[2,3-d]pyrimidine-4-carboxamide]
- IC50 [1]: 230 nM
- MEC [2]: 3 µM

SMILES: CCC(C)NC(=O)c1nc(-c2nn(Cc3ccccc3F)c3ncccc23)nc2c1C(C)(C)C(=O)N2 (racemic) [Example 63, rac-N-(butan-2-yl)-2-[1-(2-fluorobenzyl)-1H-pyrazolo[3,4-b]pyridin-3-yl]-5,5-dimethyl-6-oxo-6,7-dihydro-5H-pyrrolo[2,3-d]pyrimidine-4-carboxamide]
- IC50 [1]: 11 nM
- MEC [2]: 0.1 µM

SMILES: CC1(C)C(=O)Nc2nc(-c3nn(Cc4ccccc4F)c4ncccc34)nc(C(=O)NC3CCOC3)c21 (racemic) [Example 65, rac-2-[1-(2-fluorobenzyl)-1H-pyrazolo[3,4-b]pyridin-3-yl]-5,5-dimethyl-6-oxo-N-(tetrahydrofuran-3-yl)-6,7-dihydro-5H-pyrrolo[2,3-d]pyrimidine-4-carboxamide]
- IC50 [1]: 6.8 nM
- MEC [2]: 1 µM

SMILES: CC1(C)C(=O)Nc2nc(-c3nn(Cc4ccccc4F)c4ncccc34)nc(C(=O)NCC(N)=O)c21 [Example 75, N-(2-amino-2-oxoethyl)-2-[1-(2-fluorobenzyl)-1H-pyrazolo[3,4-b]pyridin-3-yl]-5,5-dimethyl-6-oxo-6,7-dihydro-5H-pyrrolo[2,3-d]pyrimidine-4-carboxamide]
- MEC [2]: 0.3 µM

SMILES: Cc1cnccc1NC(=O)c1nc(-c2nn(Cc3ccccc3F)c3ncccc23)nc2c1C(C)(C)C(=O)N2 [Example 101, 2-[1-(2-fluorobenzyl)-1H-pyrazolo[3,4-b]pyridin-3-yl]-5,5-dimethyl-N-(3-methylpyridin-4-yl)-6-oxo-6,7-dihydro-5H-pyrrolo[2,3-d]pyrimidine-4-carboxamide]
- MEC [2]: 0.3 µM

SMILES: CC(C)(C)CNC(=O)c1nc(-c2nn(Cc3ccccc3F)c3ncccc23)nc2c1C(C)(C)C(=O)N2 [Example 102, N-(2,2-dimethylpropyl)-2-[1-(2-fluorobenzyl)-1H-pyrazolo[3,4-b]pyridin-3-yl]-5,5-dimethyl-6-oxo-6,7-dihydro-5H-pyrrolo[2,3-d]pyrimidine-4-carboxamide]
- MEC [2]: 0.3 µM

SMILES: Cc1cc(NC(=O)c2nc(-c3nn(Cc4ccccc4F)c4ncccc34)nc3c2C(C)(C)C(=O)N3)ccn1 [Example 106, 2-[1-(2-fluorobenzyl)-1H-pyrazolo[3,4-b]pyridin-3-yl]-5,5-dimethyl-N-(2-methylpyridin-4-yl)-6-oxo-6,7-dihydro-5H-pyrrolo[2,3-d]pyrimidine-4-carboxamide]
- MEC [2]: 0.3 µM

SMILES: CN(CCC(N)=O)C(=O)c1nc(-c2nn(Cc3ccccc3F)c3ncccc23)nc2c1C(C)(C)C(=O)N2 [Example 110, N-(3-amino-3-oxopropyl)-2-[1-(2-fluorobenzyl)-1H-pyrazolo[3,4-b]pyridin-3-yl]-N,5,5-trimethyl-6-oxo-6,7-dihydro-5H-pyrrolo[2,3-d]pyrimidine-4-carboxamide]
- MEC [2]: 1 µM

SMILES: CC1(C)C(=O)Nc2nc(-c3nn(Cc4ccccc4F)c4ncccc34)nc(C(=O)Nc3ccncc3)c21 [Example 116, 2-[1-(2-fluorobenzyl)-1H-pyrazolo[3,4-b]pyridin-3-yl]-5,5-dimethyl-6-oxo-N-(pyridin-4-yl)-6,7-dihydro-5H-pyrrolo[2,3-d]pyrimidine-4-carboxamide]
- MEC [2]: 1 µM

SMILES: CCCCCCNC(=O)c1nc(-c2nn(Cc3ccccc3F)c3ncccc23)nc2c1C(C)(C)C(=O)N2 [Example 124, 2-[1-(2-fluorobenzyl)-1H-pyrazolo[3,4-b]pyridin-3-yl]-N-hexyl-5,5-dimethyl-6-oxo-6,7-dihydro-5H-pyrrolo[2,3-d]pyrimidine-4-carboxamide]
- MEC [2]: 1 µM

SMILES: CC(C)(C)CCNC(=O)c1nc(-c2nn(Cc3ccccc3F)c3ncccc23)nc2c1C(C)(C)C(=O)N2 [Example 135, N-(3,3-dimethylbutyl)-2-[1-(2-fluorobenzyl)-1H-pyrazolo[3,4-b]pyridin-3-yl]-5,5-dimethyl-6-oxo-6,7-dihydro-5H-pyrrolo[2,3-d]pyrimidine-4-carboxamide]
- MEC [2]: 1 µM
